How the values were obtained:
Test in all cases: MIC of clinical antifungals, CLSI M38-A2 broth microdilution
Format in all cases: cell-based
[1] = test system: Exophiala dermatitidis CA01; conditions: RPMI-1640, 35° C.; for MIC: read-out: MIC100
Experimental: (§1) Two Candida spp. strains (C. krusei ATCC6258 & C. parapsilosis ATCC22019) and Exophiala jeanselmei reference strain NCPF2377 were also tested. These acted as quality control strains. Flat-bottomed Nunc Plates were prepared containing a serial doubling dilution of antifungals at 2× final concentration. […] These were incubated at 35° C. and read at 24 h and 48 h (Candida spp.) or 120 h (Exophiala spp.) on a BioTek plate reader at 530 nm. • 7. Culture of Candida spp. grown on Sabouraud dextrose agar slope overnight at 30° C. • 8. Exophiala cultures grown on potato dextrose agar slope for 6 days at 35° C. • 9. Cultures were removed from incubator and 2 ml sterile 0.15M NaCl was added to the overnight culture and spore and hyphal suspensions were harvested from the surface of the agar and transferred to a sterile plastic bijou tube. • a. Exophiala spp. cultures were allowed to rest for up to 10 min, allowing hyphae to settle to the bottom. The top layers of spores were transferred to a sterile plastic bijou tube. • 10. […] This is continued to A12 where 100 μl is removed and discarded. • f. This dilution series was repeated in rows B-D for the remaining 3 cultures • g. 0.5 McFarland Standard added to wells E1-E3 • h. Plate read at OD530 on BioTek. • i. Concentration of cells required will be the one that is the equivalent to the 0.5 McFarland Standard • 11. […] • 7. The highest final concentration on the plate will be as described in layouts at the end of the protocol. […] Wells A1-A3 and A7-A9 are prepared by the addition of 200 μl highest concentration of compound to the wells. • 10. All other wells contain 100 μl sterile dH2O. • 11. Serial dilutions are carried out from A1-A3 to B1-B3 whereby 100 μl is removed from A1-A3 and placed into B1-B3 and mixed well by pipetting. Then take 100 μl B1-B3 and place in C1-C3 and mix well. Take 100 μl from C1-C3 and add to D1-D3 and mix well. […] At H1-[…] μl is removed and added to A4-A6. The dilution series is carried down the plate in the same manner to wells G4-G6 where a final 100 μl is removed and discarded. H4-H6 contain water alone and will be untreated controls. • 12. The same procedure is repeated for the wells in columns A7-A9 and A10-A12. See plate layout at bottom of page. Inoculating Plates with Candida spp./Exophiala spp. • 5. […] Plates are read in the BioTek at OD530 nm. • 7. Plates are then placed in a plastic box which contains either a Petri dish of water. The box is sealed and incubated at 35° C. (Exophiala spp.) or 30° C. (Candida spp.). The presence of the water in the dish or on the tissue provides and environment of relatively high humidity. • 8. The OD530 of the Candida spp. plates are read after 24 h and 48 h, while the slower growing Exophiala spp. plates are read after 96 h and 120 h. • 9. Raw BioTek data is transformed using Gen5 software and represented graphically using GraphPad Prism 4 software and MICs determined.

[2] = test system: Candida parapsilosis ATCC 22019; conditions: Lodderomyces parapsilosis; for MIC50 / MIC80: ATCC22019, RPMI-1640; for MIC: ATCC22019, RPMI-1640, read-out: MIC100
Experimental: as §1

[3] = test system: Exophiala jeanselmei NCPF 2377; conditions: NCPF2377, RPMI-1640, 35° C.; for MIC: read-out: MIC100
Experimental: as §1

Candida krusei ATCC 6258 = conditions: Pichia kudriavzevii; for MIC50 / MIC80: ATCC6258, RPMI-1640; for MIC: ATCC6258, RPMI-1640, read-out: MIC100
Experimental: as §1

Row | MIC50 [1] [µg/mL] | MIC80 [1] [µg/mL] | MIC [1] [µg/mL] | MIC50 [2] [µg/mL] | MIC80 [2] [µg/mL] | MIC [2] [µg/mL] | MIC50 [3] [µg/mL] | MIC80 [3] [µg/mL] | MIC [3] [µg/mL] | MIC50 (Candida krusei ATCC 6258) [µg/mL] | MIC80 (Candida krusei ATCC 6258) [µg/mL] | MIC (Candida krusei ATCC 6258) [µg/mL] | Structure (SMILES)
1 | 2 | > 32 | > 32 | 0.008 | 0.016 | 0.125 | 0.125 | 0.25 | 0.25 | 0.004 | 0.125 | 0.25 | CCC(C)n1ncn(-c2ccc(N3CCN(c4ccc(OCC5COC(Cn6cncn6)(c6ccc(Cl)cc6Cl)O5)cc4)CC3)cc2)c1=O (stereo not drawn) [Itraconazole]
2 | 16 | 32 | 32 | 1 | 2 | 64 | 0.125 | 64 | > 64 | 0.5 | 1 | 1 | CC[C@H](C)C[C@H](C)CCCCCCCCC(=O)N[C@H]1C[C@@H](O)[C@@H](NCCN)NC(=O)[C@@H]2[C@@H](O)CCN2C(=O)[C@H]([C@H](O)CCN)NC(=O)[C@H]([C@H](O)[C@@H](O)c2ccc(O)cc2)NC(=O)[C@@H]2C[C@@H](O)CN2C(=O)[C@H]([C@@H](C)O)NC1=O [Caspofungin]
3 | 250 | 500 | 500 | 0.5 | 1 | 3.9 | 250 | 500 | 1000 | 31.2 | 62.5 | 62.5 | OC(Cn1cncn1)(Cn1cncn1)c1ccc(F)cc1F [Fluconazole]
